Test results reported in patent US6924278B2, “Aroyl-piperazine derivatives, their preparation and their use as tachykinin antagonists” (Fujisawa Pharmaceutical Co., Ltd., priority 1997, dated 2005).

Experiments:
emesis in the ferret = assay: Emesis in the ferret (copper sulfate-induced retching and vomiting); type: in vivo; conditions: dose of 1.0 mg/kg i.v., 30 min before intra-gastric copper sulfate (40 mg/kg/ml), observed for the next 30 min
Protocol: Individually housed adult male ferrets (Marshall Farms, 1.4 to 2.2 kg) were given an i.v. injection of a solution contatining a test compound. 30 Min later the emetic responses (retching and vomiting) were induced by administration of intra-gastric copper sulfate (40 mg/kg/ml) and observed for the next 30 min. The timing and number of retches and vomits observed were recorded for each animal. An individual animal was tested with at least 10 days between experiments.

h-NK1 receptors = molecular target: T1, h-NK1 receptors (Homo sapiens, UniProt P25103); assay: Evaluation of NK1 antagonist transport efficiency to the central nervous system using a h-NK1 receptor binding assay (brain extract after i.v. dosing of rats); conditions: 5 min; compound extracted from brain of male SD rats 5 min after i.v. injection at the dose of 1 mg/kg; CHO cell membranes expressing h-NK1; read-out: inhibition rate of 125I-BH-Substance P binding to h-NK1 receptors
T1 construct: expressed in transfected cells; host or cells: CHO cells (permanent expression), crude cell membranes
Method in brief: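 Male SD rats received 1 mg/kg i.v.; 5 min later brains were perfused, homogenized and extracted with ethyl acetate, and the extract was redissolved in DMSO. Extracts were tested against 0.1 nM ^125I-BH-Substance P on h-NK1 CHO membranes (6 μg/ml), pH 7.4 Tris/MnCl2, 90 min at 22° C. Filtration readout; specific binding defined by 3 μM unlabeled Substance P.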

T1 sequence (P25103 whole entry): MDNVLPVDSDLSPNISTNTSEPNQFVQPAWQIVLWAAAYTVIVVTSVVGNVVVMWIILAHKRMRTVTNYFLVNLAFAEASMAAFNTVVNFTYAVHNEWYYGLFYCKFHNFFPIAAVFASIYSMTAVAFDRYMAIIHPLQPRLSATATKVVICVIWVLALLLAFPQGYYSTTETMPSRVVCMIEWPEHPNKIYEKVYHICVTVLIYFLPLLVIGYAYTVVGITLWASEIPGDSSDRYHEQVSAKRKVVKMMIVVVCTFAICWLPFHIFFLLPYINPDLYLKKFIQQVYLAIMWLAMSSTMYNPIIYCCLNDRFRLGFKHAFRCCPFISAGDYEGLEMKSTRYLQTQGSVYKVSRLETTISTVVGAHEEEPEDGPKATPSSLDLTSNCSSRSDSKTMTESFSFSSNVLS

| SMILES | melting point [°C] | inhibition at 1 mg/kg (h-NK1 receptors) [%] | inhibition rate of emesis in the ferret (emesis in the ferret) [%] |
| --- | --- | --- | --- |
| Cc1ccc(C[C@@H]2CN(CCCN(C=O)N3CCOCC3)CCN2C(=O)c2cc(C(F)(F)F)cc(C(F)(F)F)c2)cc1C.Cl [Example 26] |  |  | 100 |
| CN(CCN1CCN(C(=O)c2cc(C(F)(F)F)cc(C(F)(F)F)c2)[C@H](Cc2ccc3ccccc3c2)C1)Cc1cccnc1.Cl.Cl [Example 40] |  |  | 100 |
| CN(CCN1CCN(C(=O)c2cc(C(F)(F)F)cc(C(F)(F)F)c2)[C@H](Cc2c[nH]c3ccccc23)C1)Cc1cccnc1.Cl.Cl [Example 41, (2R)-1-[3,5-Bis(trifluoromethyl)benzoyl]-2-[(1H-indol-3-yl)methyl]-4-[2-[N-methyl-N-(3-pyridylmethyl)amino]ethyl]piperazine dihydrochloride] |  |  | 100 |
| Cc1ccc(C[C@@H]2CN(C/C=C/[C@@H]3COCCN3)CCN2C(=O)c2cc(C(F)(F)F)cc(C(F)(F)F)c2)cc1C.Cl.Cl [Example 45, (2R)-1-[3,5-bis(trifluoromethyl)benzoyl]-2-(3,4-dimethylbenzyl)-4-[(2E)-3-[(3R)-3-morpholinyl]-2-propenyl]piperazine dihydrochloride] | 225 to 232 | > 80 |  |

More lines, main results first:

| melting point [°C] | inhibition at 1 mg/kg (h-NK1 receptors) [%] | SMILES | inhibition rate of emesis in the ferret (emesis in the ferret) [%] |
| --- | --- | --- | --- |
| 80 to 100 |  | Cl.Cl.O=C(c1cc(C(F)(F)F)cc(C(F)(F)F)c1)N1CCN(CCCc2ccccn2)C[C@H]1Cc1c[nH]c2ccccc12 [4-(2), (2R)-1-[3,5-Bis(trifluoromethyl)benzoyl]-2-[(1H-indol-3-yl)methyl]-4-[3-(2-pyridyl)propyl]piperazine dihydrochloride] | 100 |
| 115 to 116 | > 80 | Cc1ccc(C[C@@H]2CN(Cc3cnn(CCN4CCOCC4)c3)CCN2C(=O)c2cc(C(F)(F)F)cc(C(F)(F)F)c2)cc1C.Cl.Cl [Example 29, (2R)-1-[3,5-bis(trifluoromethyl)benzoyl]-2-(3,4-dimethylbenzyl)-4-[[1-(2-morpholinoethyl)-1H-pyrazol-4-yl]methyl]piperazine dihydrochloride] | 100 |
| 190 to 191 | > 80 | Cc1ccc(C[C@@H]2CN(CC#C[C@@H]3COCCN3)CCN2C(=O)c2cc(C(F)(F)F)cc(C(F)(F)F)c2)cc1C.Cl.Cl [Example 68, (2R)-1-[3,5-bis(trifluoromethyl)benzoyl]-2-(3,4-dimethylbenzyl)-4-[3-[(3R)-morpholin-3-yl]-2-propynyl]piperazine dihydrochloride] |  |
